# Experimental data published in US20260216166A1, “COMPOUND FOR TREATMENT OF ERECTILE DYSFUNCTION” (Initiator Pharma A/S, priority 2023, published 2026).
# “Also recorded” adds a separate entry of the source. Like-named read-outs stand apart in the source and are kept apart here.
# Experiments:
# diabetic db/db mice = experiment: Erectile responses in type 2 diabetic db/db mice; type: in vivo, mouse; settings: intravenous infusion 1 mg/kg, n=7, versus vehicle
# Protocol: FIG. 1. Original traces show increased intracavernosal pressure induced by the cavernous nerve's electrical field stimulation (EFS). […] E-G) Frequency, duration, and magnitude of spontaneous erections after intravenous infusion of vehicle, IP2015 0.1 mg/kg, 1 mg/kg, or 10 mg/kg. The effect on EFS is reported in the supplementary data file. (H-J) Intravenous infusion of vehicle and IP2015 (1 mg/kg) in diabetic db/db mice. IP2015 increased H) frequency, I) duration and J) the magnitude of spontaneous erectile responses in db/db mice (n=7). The results are means±s.e.mean. *P<0.05 versus vehicle control.
# To investigate the effects of IP2015 in a simple model of erectile dysfunction, before dissecting its underlying pharmacology in vivo, we assessed its effects in a type-2 diabetic mouse model. Type 2 diabetic db/db mice have decreased erectile function compared to normal C57BL/6 mice and heterozygous db/+ control mice.
# male patients with ED = experiment: Phase II single oral dose safety in male patients with ED; type: in vivo, human
# Protocol: The study was an exploratory Phase II, randomised, placebo-controlled, double-blind, crossover study, investigating the effects of a single oral dose of IP2015 on erectile function in males with ED. A dose level of 10 mg was selected. Patients were enrolled into two cohorts. Both cohorts participated in two periods (Period 1 and Period 2) and received a single dose of IP2015 and a single dose of placebo.
# The study evaluated the efficacy data from RigiScan assessments in male patients with ED and the clinical safety data from AE reporting, 12-lead ECGs, vital signs, physical examinations and clinical laboratory evaluations in male patients with ED.
# (§1) Safety parameters were listed and summarised using descriptive statistics. Pharmacokinetic parameter estimates were calculated using noncompartmental methods. Pharmacokinetic data were listed for each subject/patient and summarised by descriptive statistics.
# [1] = Phase I ascending single oral dose pharmacokinetics in healthy male subjects; type: in vivo, human; settings: for half-life / Tmax: male, human, plasma
# Protocol: The study was a Phase I, randomised, double-blind, placebo-controlled, ascending single oral dose, safety, tolerability, pharmacokinetic (PK) and pharmacodynamics (PD) study of IP2015 in healthy male subjects.
# Each subject received one oral dose of IP2015 or matched placebo. The starting dose of IP2015 was 0.01 mg in Cohort 1. The dose level was to be escalated to a maximum of 0.05 mg in Cohort 2 and a maximum of 0.2 mg in Cohort 3. The doses in the remaining five cohorts were to be determined based on the dose escalation criteria. In every cohort, no more than 2 subjects were dosed on the first dosing day (1 active; 1 placebo) such that no more than 1 subject received an active IP2015 dose for the first time at each dose level.
# The IP2015 or matched placebo was administered once on the morning of Day 1 as an oral solution in the fasted state. The dose was taken with 240 ml of water at room temperature. Subjects/participants were fasted overnight prior to dosing until 4 hours postdose. Water was allowed ad libitum except for 1 hour before and 1 hour after dosing.
# The doses used in each cohort were as follows: • Cohort 1-0.01 mg • Cohort 2-0.05 mg • Cohort 3-0.2 mg • Cohort 4-0.6 mg • Cohort 5-1.8 mg • Cohort 6-5.4 mg • Cohort 7-16.2 mg • Cohort 8-10 mg
# The study also evaluated plasma PK concentrations and parameters including but not limited to: area under the plasma concentration vs time curve (AUC), from time zero to the last quantifiable concentration (AUC0-t), AUC from zero to infinity (AUC0-∞), observed maximum plasma concentration (Cmax), time to reach maximum plasma concentration (tmax) and terminal elimination half-life (T½) in healthy male subjects. Blood samples for the determination of plasma concentrations of IP2015 were collected at predose, and 0.25, 0.5, 1, 1.5, 2, 3, 4, 6, 8, 12, 16, 24, 36 and 48 hours postdose.
# as §1
# Dose proportionality was analysed for Part A with a linear regression model using the logarithm of a PK parameter as responsible variable and the logarithm of the dose as the independent variable. The linear regression model can be expressed as: […]
# The above model was applied to the following PK parameters; AUC0-t, AUC0-∞ and Cmax. Based on the linear regression model, the dose proportionality coefficient (slope) and its two-sided 90% confidence interval (CI) were estimated. Dose proportionality was declared if the 90% CI for the slope was completely contained in the following range 16: 1+log (0.5)/log (r), 1+log (2)/log (r), where r is the high dose/low dose.
# [2] = overall, crossover 10 mg IP2015 and placebo
# [3] = overall, crossover 10 mg IP2015 and placebo, 12 patients
# [4] = 0.2 to 16.2 mg single dose range
structure (smiles),measurement,setting,value
"COc1cc2ccc(OC3CC4CCC(C3)N4)cc2oc1=O (stereo not shown) [IP2015, 7-[(8-azabicyclo[3.2.1]octan-3-yl)oxy]-3-methoxy-chromen-2-one]","frequency, duration, and magnitude of erectile responses",diabetic db/db mice,"significantly increased the frequency, duration, and magnitude of erectile responses; also recorded: increased the number of erections"
same,"heart rate, increase from baseline","male patients with ED; 10 mg, 8 hours postdose",14.56 bpm
same,"RR, PR, QRS, QT and QTcF intervals, IP2015 versus placebo","male patients with ED; male patients with ED, 10 mg",no significant treatment-related differences
same,"haematology, serum biochemistry or urinalysis data","male patients with ED; male patients with ED, 10 mg",no significant treatment- or dose-related trends
same,standing and supine pulse rate,"male patients with ED; male patients with ED, 10 mg",apparent treatment-related increase
same,"systolic blood pressure, diastolic blood pressure and oral temperature, IP2015 versus placebo","male patients with ED; male patients with ED, 10 mg",no significant treatment-related differences
same,deaths or SAEs,male patients with ED; [2],No deaths or SAEs were reported
same,severity of TEAEs,male patients with ED; [2],All events were mild in severity
same,number of TEAEs,male patients with ED; [3],19
same,patients experiencing TEAEs,male patients with ED; [3],9 (75.0%)
same,increase of systemic exposure with dose based on AUC0-t,[1]; [4],greater than dose-proportional manner
same,increase of systemic exposure with dose based on AUC0-∞ and Cmax,[1]; [4],slightly more than dose-proportional manner
same,subjects with plasma concentrations below the LLOQ,"[1]; healthy males, 0.2 mg",3/7
same,plasma concentrations of IP2015,"[1]; healthy males, single oral 0.01 mg and 0.05 mg",below the LLOQ for all subjects
same,half-life,"[1]; oral, healthy males, 0.6 mg, calculated for 1/6 subjects, read-out: mean t½ (converted)",14.5 h
same,half-life,"[1]; oral, healthy males, 1.8 mg, calculated for 3/6 subjects, read-out: mean t½ (converted)",16.1 h
same,Tmax,"[1]; oral, healthy males, across all dose levels, read-out: tmax range",1 to 6 h
same,half-life,"[1]; oral, healthy males, range of means across 5.4 mg to 16.2 mg doses, read-out: mean T½",23.1 to 26.3 h
same,Tmax,"[1]; healthy males, range of medians across single oral doses 0.2-16.2 mg, read-out: median tmax",2.25 to 5 h
